Experiment [1] has as its target T1, Cathepsin B (Homo sapiens, UniProt P07858). As to the kind of experiment: Inhibition of recombinant human cathepsin B expressed in baculovirus expression system using Z-Arg-Arg-AMC as substrate incubated for 20 mins by fluorescence based assay.
The target of experiment [2] is Cathepsin B (Bos taurus) (UniProt P07688). Description: Inhibition of bovine spleen cathepsin B assessed as ratio of Kinact to Ki by spectrophotometeric method.
Experiment [3] concerns the target T1, Cathepsin B. As to the kind of experiment: Inhibition of human liver cathepsin B using Z-Phe-Arg-AMC as substrate incubated for 30 mins by fluorescence based assay.
The target of experiment [4] is T1, Cathepsin B. Description: Inhibition of human cathepsin B assessed as ratio of Kinact to Ki using Z-Phe-Arg-NH-Mec as substrate incubated for 15 to 90 mins by fluorometric method.
Experiment [5] addresses Cathepsin B (Bos taurus) (UniProt P07688). As to the kind of experiment: Inhibition of bovine cathepsin B assessed as ratio of Kinact to Ki using Z-Phe-Arg-pNA as substrate by UV/Vis spectrophotometric method.
Experiment [6] concerns the target T1, Cathepsin B. Description: Inhibition of human liver cathepsin B using Z-Arg-Arg-AMC as substrate preincubated for 15 mins followed by substrate addition and measured after 30 mins by fluorometric method.
Experiment [7] deals with T1, Cathepsin B. As to the kind of experiment: Inhibition of cathepsin B (unknown origin) assessed as reduction in 7-amino-4-methylcoumarin formation using Z-Arg-Arg-MCA as substrate preincubated for 3 mins followed by substrate addition and measured after 10 mins by fluorescence spectrometric method.

*1 amine or outer side, *2 acyl side, *3 side chain or, on linkers, in order; H or OH if unused. Where a SMILES comes first, the peptide text is derived from it. [ ]: non-standard residue; d: D form. The star is where a group is joined. X1 = CC(C)C[C@H](N[*:1])C(=O)NC(=O)[C@H]1O[C@@H]1C(=O)[*:2]; N(6-aminohexyl)Gly = O=C(CN(CCCCCCN[*:3])[*:1])[*:2]; Biotin = O=C1N[C@H]2[C@H](CS[C@H]2CCCCC(=O)*)N1 Some results are limits rather than exact numbers.

One may read the IC50 as the midpoint of a concentration-inhibition curve. For `Cc1cccc(C[C@H](NC(=O)c2ccccc2)C(=O)N[C@H](C#N)COCc2cccc(C(=O)O)c2)c1`, the IC50 on Cathepsin B [1] is < 10 nM. Turning to `CCCCC(=O)N[C@@H](Cc1cccc(C)c1)C(=O)N[C@H](C#N)COCc1cccc(C(=O)O)c1`, the concentration for half-maximal inhibition (IC50) on Cathepsin B [1] is < 10 nM. `CC(C)CCNC(=O)[C@H](Cc1cc(I)c(O)c(I)c1)NC(=O)[C@H]1O[C@@H]1C(=O)O`: on Cathepsin B (Bos taurus) [2], the Ratio was 105000 M⁻¹ s⁻¹. Usually Ki stands for a dissociation constant, usually derived from enzyme kinetics or from competition with a known ligand. As for `CC(C)CC(NC(=O)c1ccc(Br)cc1)C(=O)N(C)N(C)C#N` (racemic), affinity on Cathepsin B [3] was put at a Ki of 2 nM.

Turning to `CCOC(=O)[C@H]1O[C@@H]1C(=O)N[C@@H](CC(C)C)C(=O)N1CCC[C@H]1C(=O)O`, the Ratio on Cathepsin B [4] is 44400 M⁻¹ s⁻¹. As for `CC(=O)N[C@@H](Cc1ccccc1)C(=O)NCC(=O)COC(=O)[C@@H](CC(C)C)NC(=O)OCc1ccccc1`, the Ratio on Cathepsin B (Bos taurus) [5] came to 300 M⁻¹ s⁻¹. As to `CCCNC(=O)[C@@H]1O[C@H]1C(=O)N[C@@H](CC(C)C)C(=O)N1CCC[C@H]1C(=O)O`, on Cathepsin B [4], the Ratio came to 29400 M⁻¹ s⁻¹. On the same count and under the same terms, under `CC(C)C[C@H](NC(=O)CNC(=O)CNCCCCCCNC(=O)CCCC[C@@H]1SC[C@@H]2NC(=O)N[C@@H]21)C(=O)NC(=O)[C@H]1O[C@@H]1C(=O)N[C@@H](CC(C)C)C(=O)N1CCC[C@H]1C(=O)O` (H-[N(6-aminohexyl)Gly](Biotin)G[X1]LP-OH) stands 1.6e+06 M⁻¹ s⁻¹; under `COC(=O)CNC(=O)CNC(=O)[C@H](CC(C)C)NC(=O)[C@H]1O[C@@H]1C(=O)N[C@@H](CC(C)C)C(=O)N1CCC[C@H]1C(=O)O`, 1.52e+06 M⁻¹ s⁻¹. Consider `Cc1cccc(C[C@H](NC(=O)c2ccc(Cl)cc2F)C(=O)N[C@H](C#N)COCc2cccc(C(=O)O)c2)c1`, for which the half-inhibitory concentration (IC50) at Cathepsin B [1] was < 10 nM. With `CN1CCN(C(=O)N[C@@H](Cc2ccccc2)C(=O)N[C@H](/C=C/S(=O)(=O)c2ccccc2)c2ccc(-c3ccccc3)cc2)CC1`, on Cathepsin B [6], the IC50 was 300 nM.

In the case of `CCOC(=O)[C@@H]1O[C@H]1C(=O)N[C@@H](CC(C)C)C(=O)N1CCC[C@H]1C(=O)O`, at Cathepsin B [4], the Ratio was determined as 567000 M⁻¹ s⁻¹. With `CCCNC(=O)[C@H]1O[C@@H]1C(=O)N[C@@H](CC(C)C)C(=O)N1CCC[C@H]1C(=O)O`, the Ratio at Cathepsin B [4] was 152000 M⁻¹ s⁻¹. The compound `CC(C)CC(NC(=O)c1ccc(-c2ccc(-c3ccccc3)cc2)cc1)C(=O)N(C)N(C)C#N` (racemic) came in with a Ki at Cathepsin B [3] of 0.69 nM. On to `CCOC(=O)[C@H]1O[C@@H]1C(=O)N[C@H](C(=O)N1CCC[C@H]1C(=O)O)[C@@H](C)CC`, for which, on Cathepsin B [7], the IC50 was 2.28 nM. Regarding `CC(=O)N[C@@H](Cc1ccccc1)C(=O)NCC(=O)COC(=O)[C@H](CC(C)C)NC(=O)OCc1ccccc1`, the Ratio on Cathepsin B (Bos taurus) [5] is 2700 M⁻¹ s⁻¹. As to `CC(C)CCNC(=O)[C@H](Cc1ccccc1)NC(=O)[C@H]1O[C@@H]1C(=O)O`, the Ratio at Cathepsin B (Bos taurus) [2] was determined as 12300 M⁻¹ s⁻¹. `CC(C)CC(NC(=O)c1cccc(-c2ccncc2)c1)C(=O)N(C)N(C)C#N` (racemic) gave a Ki at Cathepsin B [3] of 5 nM.
